This note sets out measurements from US9156877B2, “17-hydroxy-17-pentafluorethyl-estra-4,9(10)-dien-11-benzylidene derivatives, methods for the production thereof and use thereof for treating diseases” (Bayer Intellectual Property GmbH, priority 2009, dated 2015).

Test [1] concerns the target T1, human progesterone receptor A (Homo sapiens, UniProt P06401).
T1 construct: expressed in transfected cells; host or cells: SK-N-MC human neuroblastoma cells, stably transfected with pRChPR-A-neo and pMMTV-LUC
T1 sequence (P06401 1-769 isoform P06401-2): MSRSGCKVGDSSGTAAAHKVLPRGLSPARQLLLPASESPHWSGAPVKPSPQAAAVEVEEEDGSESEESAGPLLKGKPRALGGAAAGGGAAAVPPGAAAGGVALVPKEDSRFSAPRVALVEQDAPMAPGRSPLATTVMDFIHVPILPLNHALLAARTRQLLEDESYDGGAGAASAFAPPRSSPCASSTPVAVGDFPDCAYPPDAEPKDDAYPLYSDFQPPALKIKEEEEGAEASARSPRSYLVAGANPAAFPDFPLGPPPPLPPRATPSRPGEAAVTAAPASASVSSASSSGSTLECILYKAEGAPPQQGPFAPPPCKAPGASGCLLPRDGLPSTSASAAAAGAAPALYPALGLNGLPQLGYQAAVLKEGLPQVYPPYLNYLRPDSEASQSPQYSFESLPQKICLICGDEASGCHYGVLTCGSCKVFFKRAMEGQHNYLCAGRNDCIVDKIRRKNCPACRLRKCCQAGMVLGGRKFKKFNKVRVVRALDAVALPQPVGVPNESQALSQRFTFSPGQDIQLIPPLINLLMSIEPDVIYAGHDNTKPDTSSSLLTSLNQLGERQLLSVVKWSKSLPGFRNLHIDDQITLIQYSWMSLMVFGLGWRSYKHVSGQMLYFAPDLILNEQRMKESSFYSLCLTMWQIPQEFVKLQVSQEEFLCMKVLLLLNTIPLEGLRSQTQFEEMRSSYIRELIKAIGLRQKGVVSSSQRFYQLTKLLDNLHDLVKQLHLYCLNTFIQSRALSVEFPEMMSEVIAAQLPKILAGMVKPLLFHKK
Put plainly: Progesterone receptor-antagonistic action in stably transfected SK-N-MC cells with MMTV-LUC reporter (PR-A). It is filed as cell-based. The settings on record: antagonistic potency against 0.1 nmol/l promegestone, 24 hours, luciferase. On the procedure:
(§1) Determination of Progesterone Receptor-Antagonistic Action in Stable Transfectants of Human Neuroblastoma Cells (SK-N-MC Cells) with the Human Progesterone A or Progesterone B Receptor and an MN-LUC Reporter Construct
(§2) SK-N-MC cells (human neuroblastoma cells) which have been stably transfected with plasmids expressing the human progesterone receptor B (pRChPR-B-neo) or the human progesterone receptor A (pRChPR-A-neo) and a reporter construct (pMMTV-LUC) were incubated for 24 hours either in the absence (negative control) or in the presence of ascending amounts of the particular test compound (0.01 nmol/l, 0.1 nmol/l, 1 nmol/l, 10 nmol/l, 100 nmol/l and […]), in order to determine the agonistic efficacy. As a positive control of the reporter gene induction, the cells were treated with the synthetic gestagen promegestone (0.01 nmol/l, 0.1 nmol/l, 1 nmol/l, 10 nmol/l, 100 nmol/l and […]). To determine the antagonistic activity, the cells were treated with 0.1 nmol/l promegestone and additionally with ascending amounts of the particular test compound (0.01 nmol/l, 0.1 nmol/l, 1 nmol/l, 10 nmol/l, 100 nmol/l and […]). The activity of the reporter gene LUC (LUC=luciferase) was determined in the cell lysates and measured as RLU (relative light units). All measurements are reported as % efficacy and as EC50 and IC50 concentrations.

Test [2] has as its target T2, human progesterone receptor B (Homo sapiens, UniProt P06401).
T2 construct: expressed in transfected cells; host or cells: SK-N-MC human neuroblastoma cells, stably transfected with pRChPR-B-neo and pMMTV-LUC
T2 sequence (P06401 1-933): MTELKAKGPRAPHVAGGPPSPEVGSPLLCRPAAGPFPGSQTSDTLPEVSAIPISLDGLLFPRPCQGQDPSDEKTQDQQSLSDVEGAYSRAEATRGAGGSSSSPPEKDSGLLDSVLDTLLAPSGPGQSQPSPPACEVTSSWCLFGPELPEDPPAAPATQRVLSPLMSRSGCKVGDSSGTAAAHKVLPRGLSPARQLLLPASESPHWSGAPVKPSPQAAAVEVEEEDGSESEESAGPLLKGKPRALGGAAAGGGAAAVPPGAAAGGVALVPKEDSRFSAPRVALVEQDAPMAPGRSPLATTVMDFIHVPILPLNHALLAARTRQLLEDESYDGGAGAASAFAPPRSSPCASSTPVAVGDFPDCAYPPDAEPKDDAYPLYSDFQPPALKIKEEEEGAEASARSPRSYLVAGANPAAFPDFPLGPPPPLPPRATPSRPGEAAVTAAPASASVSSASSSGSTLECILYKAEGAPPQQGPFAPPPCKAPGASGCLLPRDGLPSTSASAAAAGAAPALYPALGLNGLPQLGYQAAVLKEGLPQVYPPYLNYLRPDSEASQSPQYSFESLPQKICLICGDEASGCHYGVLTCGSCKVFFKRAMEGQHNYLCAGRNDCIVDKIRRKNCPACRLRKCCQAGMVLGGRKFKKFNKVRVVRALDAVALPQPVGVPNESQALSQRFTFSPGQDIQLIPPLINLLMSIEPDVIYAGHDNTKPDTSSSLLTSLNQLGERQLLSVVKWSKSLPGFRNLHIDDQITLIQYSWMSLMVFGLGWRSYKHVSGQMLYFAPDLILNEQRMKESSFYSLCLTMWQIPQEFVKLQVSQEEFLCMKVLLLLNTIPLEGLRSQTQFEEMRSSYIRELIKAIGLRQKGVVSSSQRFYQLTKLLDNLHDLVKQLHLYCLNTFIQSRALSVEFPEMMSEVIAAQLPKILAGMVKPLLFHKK
Put plainly: Progesterone receptor-antagonistic action in stably transfected SK-N-MC cells with MMTV-LUC reporter (PR-B). Conditions: antagonistic potency against 0.1 nmol/l promegestone, 24 hours, luciferase. It is filed as cell-based. The procedure:
as §1, §2

pIC50: −log10 of the molar value.

For orientation: pIC50 means −log10 of the IC50, conventionally taken in molar units. Take `CSc1ccc(/C=C/c2ccc([C@H]3C[C@@]4(C)[C@@H](CC[C@@]4(O)C(F)(F)C(F)(F)F)[C@@H]4CCC5=CC(=O)CCC5=C43)cc2)cc1` [Example 33, (8S,11R,13S,14S,17S)-17-hydroxy-13-methyl-11-{4-[(E)-2-(4-methylsulphanylphenyl)vinyl]phenyl}-17-pentafluoroethyl-1,2,6,7,8,11,12,13,14,15,16,17-dodecahydrocyclopenta[a]phenanthren-3-one]: the pIC50 is 10.00 in test [1] and 9.10 in test [2].
Taken in the same sequence, the figures for `CC(C)(C)NC(=O)NC/C=C/c1ccc([C@H]2C[C@@]3(C)C(CC[C@@]3(O)C(F)(F)C(F)(F)F)C3CCC4=CC(=O)CCC4=C32)cc1` (stereo partly shown) [Example 41] were 10.00 and 10.00.
With `C=CCNC(=O)NC/C=C/c1ccc([C@H]2C[C@@]3(C)[C@@H](CC[C@@]3(O)C(F)(F)C(F)(F)F)[C@@H]3CCC4=CC(=O)CCC4=C32)cc1` [Example 57, 1-allyl-3-{(E)-3-[4-((8S,11R,13S,14S,17S)-17-hydroxy-13-methyl-3-oxo-17-pentafluoroethyl-2,3,6,7,8,11,12,13,14,15,16,17-dodecahydro-1H-cyclopenta[a]phenanthren-11-yl)phenyl]allyl}urea], the pIC50 in test [1] is 10.05; in test [2], 10.00.
In the case of `C[C@]12C[C@H](c3ccc(/C=C/CNC(=O)NCCC(=O)O)cc3)C3=C4CCC(=O)C=C4CCC3C1CC[C@@]2(O)C(F)(F)C(F)(F)F` (stereo partly drawn) [Example 50, (3-{(E)-3-[4-((8S,11R,13S,14S,17S)-17-hydroxy-13-methyl-3-oxo-17-pentafluoroethyl-2,3,6,7,8,11,12,13,14,15,16,17-dodecahydro-1H-cyclopenta[a]phenanthren-11-yl)phenyl]allyl}ureido)propionic acid], the results for the negative logarithm of the IC50 (pIC50) in test [1] and in test [2] were 8.10 and 8.52, respectively.
`CCOC(=O)/C=C/c1ccc([C@H]2C[C@@]3(C)[C@@H](CC[C@@]3(O)C(F)(F)C(F)(F)F)[C@@H]3CCC4=CC(=O)CCC4=C32)cc1` [Example 12, (E)-3-[4-((8S,11R,13S,14S,17S)-17-hydroxy-13-methyl-3-oxo-17-pentafluoroethyl-2,3,6,7,8,11,12,13,14,15,16,17-dodecahydro-1H-cyclopenta[a]phenanthren-11-yl)phenyl]acrylic acid ethyl ester]: the pIC50 was 9.89 in test [1] and 9.59 in test [2].
On the same counts, the results for `C[C@]12C[C@H](c3ccc(/C=C/CNC(=O)Nc4ccc(Cl)cc4)cc3)C3=C4CCC(=O)C=C4CC[C@H]3[C@@H]1CC[C@@]2(O)C(F)(F)C(F)(F)F` [Example 53, 1-(4-chlorophenyl)-3-{(E)-3-[4-((8S,11R,13S,14S,17S)-17-hydroxy-13-methyl-3-oxo-17-pentafluoroethyl-2,3,6,7,8,11,12,13,14,15,16,17-dodecahydro-1H-cyclopenta[a]phenanthren-11-yl)phenyl]allyl}urea] are 10.00 and 9.70.
Regarding `Cc1ccc(NC(=O)NC/C=C/c2ccc([C@H]3C[C@@]4(C)[C@@H](CC[C@@]4(O)C(F)(F)C(F)(F)F)[C@@H]4CCC5=CC(=O)CCC5=C43)cc2)cc1` [Example 45, 1-{(E)-3-[4-((8S,11R,13S,14S,17S)-17-hydroxy-13-methyl-3-oxo-17-pentafluoroethyl-2,3,6,7,8,11,12,13,14,15,16,17-dodecahydro-1H-cyclopenta[a]phenanthren-11-yl)phenyl]allyl}-3-p-tolylurea], the pIC50 in test [1] and in test [2] was 10.00 throughout.
Regarding `COC(=O)C(C/C=C/c1ccc([C@H]2C[C@@]3(C)[C@@H](CC[C@@]3(O)C(F)(F)C(F)(F)F)[C@@H]3CCC4=CC(=O)CCC4=C32)cc1)C(=O)OC` [Example 4, 2-{(E)-3-[4-((8S,11R,13S,14S,17S)-17-hydroxy-13-methyl-3-oxo-17-pentafluoroethyl-2,3,6,7,8,11,12,13,14,15,16,17-dodecahydro-1H-cyclopenta[a]phenanthren-11-yl)phenyl]allyl}malonic acid dimethyl ester], the pIC50 in test [1] was 9.00; in test [2], 8.96.
Taken in the same sequence, the figures for `C[C@]12C[C@H](c3ccc(/C=C/CNC(=O)NCc4ccccc4)cc3)C3=C4CCC(=O)C=C4CC[C@H]3[C@@H]1CC[C@@]2(O)C(F)(F)C(F)(F)F` [Example 46, 1-benzyl-3-{(E)-3-[4-((8S,11R,13S,14S,17S)-17-hydroxy-13-methyl-3-oxo-17-pentafluoroethyl-2,3,6,7,8,11,12,13,14,15,16,17-dodecahydro-1H-cyclopenta[a]phenanthren-11-yl)phenyl]allyl}urea] were 10.15 and 10.05.
In test [1], `C[C@]12C[C@H](c3ccc(/C=C/CNC(=O)Nc4ccc(N5CCCCC5)cc4)cc3)C3=C4CCC(=O)C=C4CC[C@H]3[C@@H]1CC[C@@]2(O)C(F)(F)C(F)(F)F` [Example 58, 1-{(E)-3-[4-((8S,11R,13S,14S,17S)-17-hydroxy-13-methyl-3-oxo-17-pentafluoroethyl-2,3,6,7,8,11,12,13,14,15,16,17-dodecahydro-1H-cyclopenta[a]phenanthren-11-yl)phenyl]allyl}-3-(4-piperidin-1-ylphenyl)urea] showed a pIC50 of 9.30.
`COc1ccc(NC(=O)NC/C=C/c2ccc([C@H]3C[C@@]4(C)[C@@H](CC[C@@]4(O)C(F)(F)C(F)(F)F)[C@@H]4CCC5=CC(=O)CCC5=C43)cc2)cc1` [Example 54, 1-{(E)-3-[4-((8S,11R,13S,14S,17S)-17-hydroxy-13-methyl-3-oxo-17-pentafluoroethyl-2,3,6,7,8,11,12,13,14,15,16,17-dodecahydro-1H-cyclopenta[a]phenanthren-11-yl)phenyl]allyl}-3-(4-methoxyphenyl)urea]: the pIC50 in test [1] was 10.00.
Consider `C[C@]12C[C@H](c3ccc(/C=C/CNC(=O)Nc4ccccc4)cc3)C3=C4CCC(=O)C=C4CC[C@H]3[C@@H]1CC[C@@]2(O)C(F)(F)C(F)(F)F` [Example 42, 1-{(E)-3-[4-((8S,11R,13S,14S,17S)-17-hydroxy-13-methyl-3-oxo-17-pentafluoroethyl-2,3,6,7,8,11,12,13,14,15,16,17-dodecahydro-1H-cyclopenta[a]phenanthren-11-yl)phenyl]allyl}-3-phenylurea], for which the negative-log IC50 (pIC50) in test [1] is 10.00.
With `C=C(C)c1ccc([C@H]2C[C@@]3(C)[C@@H](CC[C@@]3(O)C(F)(F)C(F)(F)F)[C@@H]3CCC4=CC(=O)CCC4=C32)cc1` [Example 11, (8S,11R,13S,14S,17S)-17-hydroxy-11-(4-isopropenylphenyl)-13-methyl-17-pentafluoroethyl-1,2,6,7,8,11,12,13,14,15,16,17-dodecahydrocyclopenta[a]phenanthren-3-one], the pIC50 in test [2] was 10.92.
